Oligonucleotides are written 5' to 3', each unit as a sugar letter and its base; * is a phosphorothioate linkage, no mark a phosphodiester; rarer units and linkages stand in square brackets, end groups in braces. Plain capitals give the bases only. e = 2'-O-(2-methoxyethyl) (MOE); [5mC] = 5-methylcytosine; d = 2'-deoxy (DNA)
Columns and labels:
[1] = test system: angiotensinogen protein; assay: ELISA of angiotensinogen plasma levels in Sprague-Dawley rats; assay type: in vivo; conditions: for Percent inhibition of angiotensinogen protein: plasma, relative to PBS control
Experimental: Groups of Sprague-Dawley rats were injected with 10 mg/kg/week, 20 mg/kg/week, 40 mg/kg/week, or 80 mg/kg/week of ISIS 552668 administered for 4 weeks. A control group of rats was injected with phosphate buffered saline (PBS) administered weekly for 4 weeks. The rats were sacrificed at the end of the study at week 4. Whole liver and kidney were harvested for RNA analysis and plasma was collected for protein analysis.
(§1) Angiotensinogen plasma levels were measured by ELISA (IBL International, Toronto, Canada). […] Results are presented as percent inhibition of angiotensinogen, relative to PBS control.

[2] = test system: female SHR rats; assay: Blood pressure by tail-cuff method in female SHR rats, Study 1; assay type: in vivo, Spontaneously hypertensive (SHR) rats; conditions: 2 weeks
Experimental: Groups of female SHR rats were injected with 50 mg/kg/week, 75 mg/kg/week, or 100 mg/kg/week of ISIS 552668 administered for 2 weeks. A control group of female SHR rats was injected with phosphate buffered saline (PBS) administered weekly for 2 weeks. Another control group constituted a group of wild-type rats injected with phosphate buffered saline (PBS) administered weekly for 2 weeks.
Systolic blood pressure (SBP), mean arterial pressure (MAP), and diastolic blood pressure (DBP) in the rats was measured by the tail-cuff volume-pressure method (Kent Scientific, Torrington, Conn.).

[3] = test system: female SHR rats; assay: Blood pressure by tail-cuff method in female SHR rats with subsequent Captopril, Study 2; assay type: in vivo, Spontaneously hypertensive (SHR) rats; conditions: then Captopril 50 mg/kg/day for 4 days
Experimental: A control group of female SHR rats was injected with phosphate buffered saline (PBS) administered weekly for 2 weeks. Another control group constituted a group of wild-type rats injected with phosphate buffered saline (PBS) administered weekly for 2 weeks. […] Systolic blood pressure (SBP), mean arterial pressure (MAP), and diastolic blood pressure (DBP) in the rats was measured by the tail-cuff volume-pressure method (Kent Scientific, Torrington, Conn.).

[4] = test system: female SHR rats; assay: Heart size after harvest in female SHR rats, Study 2; assay type: in vivo, Spontaneously hypertensive (SHR) rats; conditions: after 3 weeks, versus wild-type controls
Experimental: The size of the heart was measured immediately after harvest.

[5] = test system: angiotensinogen mRNA; assay: Real-time PCR of angiotensinogen mRNA in SHR tissues, Study 3; assay type: in vivo, Spontaneously hypertensive (SHR) rats; conditions: 3 weeks, oligonucleotides 100 mg/kg/week, Captopril 150 mg/kg/day
Experimental: (§2) A group of SHR was injected with 100 mg/kg/week of ISIS 552668 administered for 3 weeks. A control group of SHR was injected with phosphate buffered saline (PBS) administered weekly for 3 weeks. Another control group of SHR was injected with 100 mg/kg/week of a control oligonucleotide (a nucleotide not targeted to angiotensinogen) administered for 3 weeks.
[…] The mRNA levels were normalized using the housekeeping gene, GAPDH. […] Results are presented as percent inhibition of angiotensinogen, relative to control.

[6] = test system: renin mRNA; assay: Real-time PCR of kidney renin mRNA in SHR, Study 3; assay type: in vivo, Spontaneously hypertensive (SHR) rats; conditions: 3 weeks, oligonucleotides 100 mg/kg/week, Captopril 150 mg/kg/day, PBS = 100
Experimental: A control group of SHR was injected with phosphate buffered saline (PBS) administered weekly for 3 weeks. Another control group of SHR was injected with 100 mg/kg/week of a control oligonucleotide (a nucleotide not targeted to angiotensinogen) administered for 3 weeks. […] RNA was extracted from kidney tissue for real-time PCR analysis of renin, using primer probe set rRenin2 (forward sequence [NT], designated herein as SEQ ID NO: 21; reverse sequence [NT], designated herein as SEQ ID NO: 22; probe sequence [NT], designated herein as SEQ ID NO: 23). The mRNA levels were normalized using the housekeeping gene, GAPDH. […] Increase in renin in the body is deleterious to the overall health of the animal (Nguyen and Muller, The Biology of the (Pro)Renin Receptor, J Am Soc Nephrol, 2010 January, 21(1):18-23). […] Results are presented as percent expression of renin, relative to control.

[7] = test system: angiotensinogen protein; assay: ELISA of angiotensinogen plasma levels in SHR, Study 3; assay type: in vivo, Spontaneously hypertensive (SHR) rats; conditions: 3 weeks, oligonucleotides 100 mg/kg/week, Captopril 150 mg/kg/day
Experimental: as §2, §1

[8] = test system: angiotensinogen; assay: Immunohistochemical analysis of liver, cardiac and kidney tissues in SHR, Study 3; assay type: in vivo, Spontaneously hypertensive (SHR) rats; conditions: 100 mg/kg/week for 3 weeks, compared to the PBS control
Experimental: as §2

[9] = test system: SHR; assay: Systolic blood pressure by tail-cuff method in SHR before and after ISIS 552668 added to chronic Captopril, Study 4; assay type: in vivo, Spontaneously hypertensive (SHR) rats; conditions: no Captopril
[10] = test system: Dahl/SS rats; assay: Blood pressure by tail-cuff method in Dahl/SS rats; assay type: in vivo, Dahl/Salt Sensititive (Dahl/SS) rats; conditions: female Dahl/SS rats, 8% NaCl diet; 3 weeks; ISIS oligonucleotides 40 mg/kg/week, Captopril 150 mg/kg daily
Experimental: The rats were fed a diet with 8% NaCl. A group of female Dahl/SS rats was injected with 40 mg/kg/week of ISIS 552668 administered for 3 weeks. A group of female Dahl/SS rats was injected with 40 mg/kg/week of control oligonucleotides ISIS 141923 administered for 3 weeks. […] A control group of female Dahl/SS rats was injected with phosphate buffered saline (PBS) administered weekly for 3 weeks. Another control group constituted a group of Dahl/Salt Resistant (Dahl/SR) rats injected with phosphate buffered saline (PBS) administered weekly for 3 weeks.
Systolic blood pressure (SBP), mean arterial pressure (MAP), and diastolic blood pressure (DBP) in the rats was measured by the tail-cuff volume-pressure method (Kent Scientific). The results are presented in Table 12, expressed as the percent decrease in blood pressure compared to the control SHR group.

In the case of “ISIS 552668: 5-10-5 MOE gapmer CACTGATTTTTGCCCAGGAT (SEQ ID NO: 17), phosphorothioate linkages, 5-methylcytosines, targeted to rat angiotensinogen (antisense e[5mC]*eA*e[5mC]*eT*eG*dA*dT*dT*dT*dT*dT*dG*d[5mC]*d[5mC]*d[5mC]*eA*eG*eG*eA*eT)”, the “Percent inhibition of angiotensinogen protein” value ([1]; 10 mg/kg/wk for 4 weeks) is reported as 25%, the “Percent inhibition of angiotensinogen protein” value ([1]; 20 mg/kg/wk for 4 weeks) is reported as 38% and the “Percent inhibition of angiotensinogen protein” value ([1]; 40 mg/kg/wk for 4 weeks) is reported as 83%. The “Percent inhibition of angiotensinogen protein” value ([1]; 80 mg/kg/wk for 4 weeks) was 93%, the “ED50 for plasma protein reductions” value ([1]; weekly dosing for 4 weeks) was 23.6 mg/kg and the DBP ([2]; 50 mg/kg/wk) was 100 mm Hg. The MAP ([2]; 50 mg/kg/wk) was 114 mm Hg, the SBP ([2]; 50 mg/kg/wk) was 144 mm Hg and the DBP ([2]; 75 mg/kg/wk) was 98 mm Hg. The MAP ([2]; 75 mg/kg/wk) was 111 mm Hg, the SBP ([2]; 75 mg/kg/wk) was 140 mm Hg and the DBP ([2]; 100 mg/kg/wk) was 81 mm Hg. For the same substance, the MAP ([2]; 100 mg/kg/wk) was 95 mm Hg, the SBP ([2]; 100 mg/kg/wk) was 122 mm Hg and the DBP ([3]; ASO 50 mg/kg/wk for 2 weeks) was 82 mm Hg. For the same substance, the MAP ([3]; ASO 50 mg/kg/wk for 2 weeks) was 97 mm Hg, the SBP ([3]; ASO 50 mg/kg/wk for 2 weeks) was 127 mm Hg and the DBP ([3]; ASO 75 mg/kg/wk for 2 weeks) was 74 mm Hg. For the same substance, the MAP ([3]; ASO 75 mg/kg/wk for 2 weeks) was 87 mm Hg, the SBP ([3]; ASO 75 mg/kg/wk for 2 weeks) was 113 mm Hg and the DBP ([3]; ASO 100 mg/kg/wk for 2 weeks) was 81 mm Hg. The MAP ([3]; ASO 100 mg/kg/wk for 2 weeks) was 94 mm Hg, the SBP ([3]; ASO 100 mg/kg/wk for 2 weeks) was 120 mm Hg and the “Effect on heart size of the SHR rats” value [4] was “reversed the increase in heart size of the SHR rats to that observed in the wild-type controls”. The “Percent inhibition of angiotensinogen mRNA compared to the PBS control, Heart” value [5] was 89%, the “Percent inhibition of angiotensinogen mRNA compared to the PBS control, Kidney” value [5] was 76% and the “Percent inhibition of angiotensinogen mRNA compared to the PBS control, Liver” value [5] was 87%. The “Percent increase of kidney renin mRNA” value [6] was 379%, the “Percent inhibition of angiotensinogen protein in the plasma compared to the PBS control” value [7] was 91% and the “Angiotensinogen in liver, cardiac and kidney tissues by immunohistochemical analysis” value [8] was “significant reduction of angiotensinogen”. For the same substance, the “Blood pressure (SBP), Before ISIS 552668 dosing” value ([9]; ISIS 552668 50 mg/kg/week) was 146, the “Blood pressure (SBP), Before ISIS 552668 dosing” value ([9]; ISIS 552668 100 mg/kg/week) was 131 and the DBP [10] was 94 mm Hg. The MAP [10] was 111 mm Hg and the SBP [10] was 146 mm Hg.

— patent publication US20150297629A1, “MODULATION OF RENIN-ANGIOTENSIN SYSTEM (RAS) RELATED DISEASES BY ANGIOTENSINOGEN” (Isis Pharmaceuticals, Inc,, priority 2012, published 2015)
